According to patent publication US7452997B2 (priority 2004, dated 2008):

Assays:
[1] = target: T1, human CB1 receptor (Homo sapiens, UniProt P21554); assay: biochemical; format: binding
T1 construct: expressed in transfected cells; host or cells: SK-N-MC cells, stably transfected with pcDNA3 CB-1 (human); semi-purified membrane pellet
Experimental: (§1) Binding Assay for CB1 or CB2 Agonists or Inverse Agonists
(§2) The human CB1 and CB2 receptors were stably expressed in SK-N-MC cells transfected with pcDNA3 CB-1 (human) or pcDNA3 CB-2 (human). The cells were grown in T-180 cell culture flasks under standard cell culture conditions at 37° C. in a 5% CO2 atmosphere. The cells were harvested by trysinization and homogenized in a homogenization buffer (10 mM Tris, 0.2 mM MgCl2, 5 mM KCl, with protease inhibitors aprotinin, leupeptin, pepstatin A and bacitracin) and centrifuged (2000 g). The supernatant was then centrifuged in 2M sucrose (31,300 g) to produce a semi-purified membrane pellet. The pellet was resuspended in homogenization and store at −80° C.
On the day of the assay, the pellet was thawed on ice and diluted in assay buffer (50 mM Tris-HCl, 5 mM MgCl2, 2.5 mM EDTA, 0.5 mg/mL fatty acid free bovine serum albumin, pH 7.5). […] The plate was covered and incubated for 90 minutes at 30° C. The contents were then aspirated onto a Packard […] GF/C filter bottom plate prewet with 0.5% polyethyleneimine. The wells of the polypropylene plate were rinsed and aspirated seven times with a 0.9% saline-0.5% TWEEN 20 solution. The […] plate was dried, a scintillation cocktail was added to each well and the counts representing binding were quantitated in a TOPCOUNT scintillation counter.
(§3) The IC50 binding values for compounds tested were calculated by linear regression and were obtained from studies in which varying compound concentrations were used.

[2] = target: human CB2 receptor (Homo sapiens, UniProt P34972); assay: Binding assay, cannabinoid CB2 receptor ([3H]-CP-55,940 displacement); details: Cannabinoid CB2 Receptor Binding IC50, human CB2 receptor, SK-N-MC cell membranes, radioligand CP-55,940 0.2 nM
Chain of human CB2 receptor (P34972 whole entry): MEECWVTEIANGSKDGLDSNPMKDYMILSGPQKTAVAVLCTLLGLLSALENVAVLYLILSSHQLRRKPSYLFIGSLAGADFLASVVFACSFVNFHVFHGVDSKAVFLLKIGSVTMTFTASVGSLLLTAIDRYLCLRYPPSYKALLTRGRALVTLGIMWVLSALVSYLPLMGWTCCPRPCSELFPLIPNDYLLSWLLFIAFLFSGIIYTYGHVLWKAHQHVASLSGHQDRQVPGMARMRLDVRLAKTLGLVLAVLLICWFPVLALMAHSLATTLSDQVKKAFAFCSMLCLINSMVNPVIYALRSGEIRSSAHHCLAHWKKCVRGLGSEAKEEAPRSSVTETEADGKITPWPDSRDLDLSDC
Experimental: as §1, §2
On the day of the assay, the pellet was thawed on ice and diluted in assay buffer (50 mM Tris-HCl, 5 mM MgCl2, 2.5 mM EDTA, 0.5 mg/mL fatty acid free bovine serum albumin, pH 7.5). The diluted membrane was added with buffer, test compound or standard and the radioligand [H]^3+-CP-55,940_(0.2 nM) to the wells of a 96-well polypropylene plate. Non-specific binding was measured in wells containing 10 uM WIN 55,212. The plate was covered and incubated for 90 minutes at 30° C. The contents were then aspirated onto a Packard UNIFILTER GF/C filter bottom plate prewet with 0.5% polyethyleneimine. The wells of the polypropylene plate were rinsed and aspirated seven times with a 0.9% saline-0.5% TWEEN 20 solution. The UNIFILTER plate was dried, a scintillation cocktail was added to each well and the counts representing binding were quantitated in a TOPCOUNT scintillation counter.
as §3

T1 sequence (P21554 whole entry): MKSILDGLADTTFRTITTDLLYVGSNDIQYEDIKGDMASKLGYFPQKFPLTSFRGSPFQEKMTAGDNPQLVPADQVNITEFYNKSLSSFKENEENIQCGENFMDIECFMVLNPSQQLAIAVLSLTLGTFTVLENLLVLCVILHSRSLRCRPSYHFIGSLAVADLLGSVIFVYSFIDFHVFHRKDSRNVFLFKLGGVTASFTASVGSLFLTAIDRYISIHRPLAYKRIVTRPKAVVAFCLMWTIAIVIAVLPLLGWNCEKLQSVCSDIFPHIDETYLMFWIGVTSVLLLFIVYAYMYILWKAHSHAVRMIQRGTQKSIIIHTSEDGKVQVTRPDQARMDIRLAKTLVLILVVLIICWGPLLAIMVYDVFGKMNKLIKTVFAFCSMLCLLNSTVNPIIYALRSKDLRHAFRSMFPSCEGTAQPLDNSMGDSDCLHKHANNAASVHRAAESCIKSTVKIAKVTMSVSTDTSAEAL

SMILES: C[C@H](NC(=O)c1nn(C2CCCCC2)c2c1CCCC2)c1ccccc1 [compound 196]
- IC50 [1]: 125 nM
- IC50 [2]: 120 nM

SMILES: O=C(NCC(=O)C1CCCCC1)c1nn(C2CCCCC2)c2c1CCCC2 [compound 187]
- IC50 [1]: 3690 nM
- IC50 [2]: 1600 nM

SMILES: CC[C@@H](NC(=O)c1nn(C2CCCCC2)c2c1CCCC2)c1ccccc1 [compound 204]
- IC50 [1]: 800 nM
- IC50 [2]: 10 nM

SMILES: O=C(NN1CCCCCC1)c1nn(Cc2ccccc2)c2c1CCCC2 [compound 41]
- IC50 [1]: 49 nM
- IC50 [2]: 34.8 nM

SMILES: CCOC(=O)[C@@H]1C2C=CC(C2)[C@@H]1NC(=O)c1nn(Cc2ccccc2)c2c1CCCC2 (some centres unmarked) [compound 206]
- IC50 [1]: 97 nM
- IC50 [2]: 14.1 nM

SMILES: CC(NC(=O)c1nn(-c2ccc(F)cc2)c2c1CCCC2)C1C2CC3CC(C2)CC1C3 (centres unmarked) [compound 22]
- IC50 [1]: 1030 nM
- IC50 [2]: 143 nM

SMILES: O=C(NC1C2CC3CC(C2)CC1C3)c1nn(-c2ccc(Cl)cc2Cl)c2c1CCCC2 (centres unmarked) [compound 131]
- IC50 [1]: 30 nM
- IC50 [2]: 10 nM

SMILES: CCOC(=O)C1CCCc2c1c(C(=O)N[C@H](C)C1CCCCC1)nn2C1CCCCC1 (some centres unmarked) [compound 285]
- IC50 [1]: 2900 nM
- IC50 [2]: 2400 nM

SMILES: CC12CCC(C1)C(C)(C)C2NC(=O)Nc1nn(C2CCCCC2)c2c1CCCC2 (centres unmarked) [compound 205]
- IC50 [1]: 1580 nM
- IC50 [2]: 70 nM

SMILES: COc1ccccc1C(Cc1nn(C2CCCCC2)c2c1CCCC2)C(=O)NC1C2(C)CCC(C2)C1(C)C (centres unmarked) [Cpd 333, 3-(1-cyclohexyl-4,5,6,7-tetrahydro-1H-indazol-3-yl)-2-(2-methoxy-phenyl)-N-(1,3,3-trimethyl-bicyclo[2.2.1]hept-2-yl)-propionamide]
- IC50 [1]: 5700 nM
- IC50 [2]: 2900 nM

SMILES: CC12CCC(C1)C(C)(C)C2NC(=O)c1nn(-c2ccccc2F)c2c1CCCC2 (centres unmarked) [compound 16]
- IC50 [1]: 185 nM
- IC50 [2]: 5.4 nM

SMILES: O=C(NC1CCCCCCC1)c1nn(Cc2ccccc2)c2c1CCCC2 [compound 127]
- IC50 [1]: 9.9 nM
- IC50 [2]: 3.9 nM

SMILES: O=C(NN1CCCCC1)c1nn(-c2ccc(Cl)cc2Cl)c2c1CCCC2 [compound 287]
- IC50 [1]: 2500 nM
- IC50 [2]: 2100 nM

SMILES: CC12CCC(C1)C(C)(C)C2NC(=O)c1nn(-c2ccc(Cl)cc2Cl)c2c1CCCC2 (centres unmarked) [compound 129]
- IC50 [1]: 5.7 nM
- IC50 [2]: 1.7 nM

SMILES: CC12CCC(C1)C(C)(C)C2NC(=O)c1nn(Cc2ccccc2)c2c1CCCC2 (centres unmarked) [Cpd 194, 1-benzyl-4,5,6,7-tetrahydro-1H-indazole-3-carboxylic acid (1,3,3-trimethyl-bicyclo[2.2.1]hept-2-yl)-amide]
- IC50 [1]: 0.1 nM
- IC50 [2]: 0.2 nM

SMILES: CC(NC(=O)c1nn(Cc2ccccc2)c2c1CCCC2c1ccccc1)C1CCCCC1 (centres unmarked) [compound 267]
- IC50 [1]: 150 nM
- IC50 [2]: 270 nM

SMILES: CC(NC(=O)c1nn(C2CCCCC2)c2c1CC(=O)CC2)C12CC3CC(CC(C3)C1)C2 (centres unmarked) [compound 97]
- IC50 [1]: 9700 nM
- IC50 [2]: 30 nM

SMILES: O=C(Nc1nn(C2CCCCC2)c2c1CCCC2)C12CC3CC(CC(C3)C1)C2 [compound 179]
- IC50 [1]: 7300 nM
- IC50 [2]: 700 nM

SMILES: CC(C)(C)OC(=O)NC1CCc2c(c(C(=O)NC3C4CC5CC(C4)CC3C5)nn2C2CCCCC2)C1 (centres unmarked) [compound 85]
- IC50 [1]: 600 nM
- IC50 [2]: 82 nM

SMILES: C[C@H]1C(NC(=O)c2nn(C3CCCCC3)c3c2CCCC3)C[C@@H]2C[C@H]1C2(C)C (some centres unmarked) [compound 252]
- IC50 [1]: 40 nM
- IC50 [2]: 48 nM

SMILES: COC(=O)C(Cc1ccc(OCc2ccccc2)cc1)NC(=O)c1nn(Cc2ccccc2)c2c1CCCC2 (centres unmarked) [compound 80]
- IC50 [1]: 230 nM
- IC50 [2]: 170 nM

SMILES: CC(NC(=O)c1nn(-c2ccc(Cl)cc2Cl)c2c1CCCC2)C12CC3CC(CC(C3)C1)C2 (centres unmarked) [compound 283]
- IC50 [1]: 100 nM
- IC50 [2]: 100 nM

SMILES: CCOC(=O)[C@@H]1C2CCC(C2)[C@@H]1NC(=O)c1c2c(nn1Cc1ccccc1)CCCC2 (some centres unmarked) [compound 273]
- IC50 [1]: 1590 nM
- IC50 [2]: 414 nM

SMILES: COc1ccccc1CCNC(=O)c1nn(C2CCCCC2)c2c1CCCC2 [compound 236]
- IC50 [1]: 25400 nM
- IC50 [2]: 940 nM

SMILES: O=C(NC1C2CC3CC(C2)CC1C3)c1nn(Cc2ccccc2)c2c1CCCC2 (centres unmarked) [compound 136]
- IC50 [1]: 0.8 nM
- IC50 [2]: 0.5 nM
